#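 Growth conditions: 96-well plates. Treatment: test compound, 48 hours, 5 concentrations. Analysis: linear interpolation between bracketing concentrations; unreached endpoints set to highest concentration. The concentration for full growth arrest is given as TGI.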
# Tests used:
# Assay in all cases: DTP human tumour cell line panel, 48 h
# [1] = test system: 786-0 renal
# [2] = test system: A498 renal
# [3] = test system: A549 NSCLC
# [4] = test system: ACHN renal
# [5] = test system: BT-549 breast
# [6] = test system: CAKI-1 renal
# [7] = test system: CCRF-CEM leukemia
# [8] = test system: COLO 205 colon
# [9] = test system: DU-145 prostate
# [10] = test system: EKVX NSCLC
# [11] = test system: HCC-2998 colon
# [12] = test system: HCT-116 colon
# [13] = test system: HCT-15 colon
# [14] = test system: HL-60(TB) leukemia
# [15] = test system: HOP-62 NSCLC
# [16] = test system: HOP-92 NSCLC
# [17] = test system: HS 578T breast
# [18] = test system: HT29 colon
# [19] = test system: IGROV1 ovarian
# [20] = test system: K-562 leukemia
# [21] = test system: KM12 colon
# [22] = test system: LOX IMVI melanoma
# [23] = test system: M14 melanoma
# [24] = test system: MALME-3M melanoma
# [25] = test system: MCF7 breast
# [26] = test system: MDA-MB-231 breast
# [27] = test system: MDA-MB-435
# [28] = test system: MDA-N
# [29] = test system: MOLT-4 leukemia
# [30] = test system: NCI-H226 lung
# [31] = test system: NCI-H23 lung
# [32] = test system: NCI-H460 lung
# [33] = test system: NCI-H522 lung
# [34] = test system: NCI/ADR-RES ovarian
# [35] = test system: OVCAR-3 ovarian
# [36] = test system: OVCAR-4 ovarian
# [37] = test system: OVCAR-5 ovarian
# [38] = test system: OVCAR-8 ovarian
# [39] = test system: PC-3 prostate
# [40] = test system: RPMI-8226 leukemia
# [41] = test system: RXF 393 renal
# [42] = test system: SF-268 CNS
# [43] = test system: SF-295 CNS
# [44] = test system: SK-MEL-2 melanoma
# [45] = test system: SK-MEL-28 melanoma
# [46] = test system: SK-MEL-5 melanoma
# [47] = test system: SK-OV-3 ovarian
# [48] = test system: SN12C renal
# [49] = test system: SNB-19 CNS
# [50] = test system: SNB-75 CNS
# [51] = test system: SW-620 colon
# [52] = test system: T-47D breast
# [53] = test system: U251 CNS
# [54] = test system: UACC-257 melanoma
# [55] = test system: UACC-62 melanoma
# [56] = test system: UO-31 renal
smiles,measurement,setting,value
CCCCCc1cc2cc3c(c(O)c2c(=O)[nH]1)C1(CC3)C(O)=c2c(=O)c3c(=O)cc(OC)c(=O)c=3c(=O)c2=C1O (stereo unspecified),TGI,[1],2.91 µM
same,TGI,[2],5.26 µM
same,TGI,[3],6.06 µM
same,TGI,[4],2.18 µM
same,TGI,[5],3.6 µM
same,TGI,[6],1.8 µM
same,TGI,[7],0.884 µM
same,TGI,[8],0.449 µM
same,TGI,[9],3.46 µM
same,TGI,[10],3.36 µM
same,TGI,[11],3.92 µM
same,TGI,[12],2.8 µM
same,TGI,[13],2.24 µM
same,TGI,[14],1.41 µM
same,TGI,[15],12.8 µM
same,TGI,[16],1.25 µM
same,TGI,[17],15.3 µM
same,TGI,[18],2.9 µM
same,TGI,[19],4.4 µM
same,TGI,[20],2.29 µM
same,TGI,[21],5.4 µM
same,TGI,[22],2.65 µM
same,TGI,[23],3.22 µM
same,TGI,[24],2.54 µM
same,TGI,[25],2.23 µM
same,TGI,[26],2.16 µM
same,TGI,[27],3.93 µM
same,TGI,[28],3.71 µM
same,TGI,[29],4.48 µM
same,TGI,[30],4.58 µM
same,TGI,[31],2.77 µM
same,TGI,[32],3.35 µM
same,TGI,[33],1.69 µM
same,TGI,[34],7.35 µM
same,TGI,[35],1.93 µM
same,TGI,[36],3.02 µM
same,TGI,[37],5.86 µM
same,TGI,[38],3.26 µM
same,TGI,[39],2.24 µM
same,TGI,[40],2.42 µM
same,TGI,[41],3.55 µM
same,TGI,[42],3.56 µM
same,TGI,[43],18.7 µM
same,TGI,[44],3.3 µM
same,TGI,[45],4.26 µM
same,TGI,[46],2.22 µM
same,TGI,[47],9.96 µM
same,TGI,[48],3.42 µM
same,TGI,[49],3.74 µM
same,TGI,[50],4.68 µM
same,TGI,[51],3.31 µM
same,TGI,[52],3.58 µM
same,TGI,[53],2.75 µM
same,TGI,[54],2.14 µM
same,TGI,[55],4.82 µM
same,TGI,[56],2.38 µM
